In patent US5538993A, “Certain tetrahydrocannabinol-7-oic acid derivatives” (priority 1991, dated 1996):

Experiments:
peritoneal leukocytes = assay: Leukocyte adhesion assay (peritoneal cells after oral dosing); type: in vivo, female CD-1 mice; settings: cells collected 90 min after dosing; for number of adhering cells: ± S.D
Experimental: Leukocytes are thought to be major contributors to the inflammatory response and their ability in this regard is reflected by their adhesiveness to a variety of substrates [Audette, C. A., et al., ibid.] Sci., 47, 753 (1990)].
The details of the leukocytes adhesion assay have been previously reported [Audette et al., ibid.]. In brief, peritoneal cells from female CD-1 mice (20-25 g) were collected at 90 min following oral administration of the drug or vehicle (50 μl peanut oil). Cells from each treatment group (N=3) were pooled and equal numbers aliquoted into six culture dish wells (1.9 cm^2 area). After incubation for 18-20 hours, non-adhering cells were removed and the remaining cell monolayer quantitated by DNA measurement.

PAF-Induced Paw Edema = assay: Inhibition of PAF-induced paw edema; type: in vivo, CD-1 female mice; settings: for Inhibition of PAF-Induced Paw Edema: vs vehicle treated controls, 15 min after PAF
Experimental: A second model, in which edema is induced by platelet activating factor (PAF), was used to evaluate activity.
(§1) The conditions were based on those reported previously [Calhoun et al., ibid.]. […] PAF (1.0 μq) or arachidonic acid (1.0 mg) dissolved in 50 μl of 5% ethanol in saline, were injected s.c. into the plantar surface of the right hind paw of CD-1 female mice (20-25 g) obtained from Charles River Labs. The mice were under ether anesthesia during this procedure. The volume of the right foot was measured to the level of the lateral malleotis by water displacement before treatment and 15 min after PAF injection or 30 min after archidonate injection. The change in paw volume was calculated for each mouse and the significance for each group was determined by a paired t test analysis.

[1] = tested on: N-methyl-D-aspartate (NMDA) induced lethality; assay: Protection against NMDA induced lethality; type: in vivo, Balb/c male mice; settings: drug 10 mg/kg, 90 min before NMDA
Experimental: (§2) The present compounds are active in several tests generally used to indicate neuroprotection.
(§3) Balb/c male mice were administered with the drug 90 min before treatment with NMDA (125 mq/kg) or 120 min before picrotoxin (8 mg/kg) in emulsion, s.c. The survival rate shown in Table VI indicates number of survivors out of total number of animals used.

cataleptic response = assay: Cataleptic effects, ring test; type: in vivo, mouse; settings: 5 min test period, ± SD
Experimental: The lack of CNS activity for the compounds described herein may be seen from the data shown in Table V. This was measured by the so-called "ring test" [Pertwee, R. G., et al., J. Pharmacol., 46, 753 (1972)] in which the cataleptic effects of cannabinoids can be quantitated. The compounds produced little or no response when compared with the parent drug.
The cataleptic response was measured using the ring test. Mice were placed on a horizontal wire ring 5.5 cm in diameter, which was attached to a 16 cm vertical rod. The hind paws and fore paws were placed at opposite sides of the ring. It is important that the ambient temperature is maintained at 30° C. and that the environment be free of auditory stimuli and bright lights. The criteria for immobility are detailed by Pertwee. The response is calculated as the fraction of time the mouse is immobile over a 5 min. test period. Measurements were always done between 2 and 4 p.m. and the animals were used only once.

[2] = tested on: Arachidonic Acid-Induced Paw Edema; assay: Inhibition of arachidonic acid-induced paw edema; type: in vivo, CD-1 female mice
Excerpt: The induction of paw edema in rodents by injection of arachidonic acid has been used as an experimental model for inflammation [Calhoun, W., et al., Agents and Actions, 21, 306 (1987)]. Prior administration of non-steroidalanti-inflammatory drugs (NSAIDs) in many cases leads to a dose related inhibition of the edematous response which may be considered a predictor of clinical efficacy.
as §1

mouse hot plate test = assay: Hot plate test for antinociception (55° C.); type: in vivo; settings: 90 min before test
Experimental: In the hot plate test for analgesia an aluminum surface was maintained at 55±1° C. by circulating water through passages in the metal. A clear plastic cylinder 18 cm in diameter and 26 cm high was placed on the surface to prevent escape. The end point was taken when the mouse either performed a hind paw lick or jumped off the surface; in no case were the animals kept for more than 30 secs on the plate. Mice were never used more than one time; control values were always measured at 11 a.m. and test values at 2 p.m. The drugs were administered orally 90 min before the hot plate test. The percent change in response time (latency) was calculated by comparing the mean of the control values with the mean of the test values and statistical signficance determined by a paired tetest analysis using software (Statview, 512) from Brainpower, Inc., Calabasas, Calif.

intraocular pressure = assay: Reduction of intraocular pressure (anti-glaucoma); type: in vivo, rabbits; settings: 50 μl drop of a 1% emulsion into rabbit eye
Experimental: Reduction of intraocular pressure in rabbits was determined by the addition of a 50 μl drop of a 1% emulsion of the cannabinoid into the rabbit eye. This test is a measure of anti-glaucoma activity.

forebrain ischemia = assay: Protection against forebrain ischemia (unilateral occlusion); type: in vivo; settings: mongolian gerbils, result in words
Excerpt: as §2

[3] = tested on: Picrotoxin induced lethality; assay: Protection against picrotoxin induced lethality; type: in vivo, Balb/c male mice; settings: drug 10 mg/kg, 120 min before picrotoxin (8 mg/kg)
Experimental: as §2, §3

[4] = previously shown; cited from earlier work

Compound: THC-7-oic Acid [reference compound]
- adhering cells, percent of control (peritoneal leukocytes; 20 mg/kg oral): 90.6% of control
- number of adhering cells (peritoneal leukocytes; 20 mg/kg oral): 0.67 ± 0.02 number of adhering cells × 10^-6
- adhering cells, percent of control (peritoneal leukocytes; 40 mg/kg oral): 67.9% of control
- number of adhering cells (peritoneal leukocytes; 40 mg/kg oral): 0.55 ± 0.22 number of adhering cells × 10^-6

Compound: CCCCCc1cc(O)c2c(c1)OC(C)(C)[C@@H]1CC=C(C(=O)O)C[C@@H]21 [Δ^6 -THC-7-oic acid, reference compound]
- Inhibition of PAF-Induced Paw Edema (PAF-Induced Paw Edema; 0.5 mg/kg): N.S.
- Inhibition of PAF-Induced Paw Edema (PAF-Induced Paw Edema; 1.0 mg/kg): N.S.
- Inhibition of PAF-Induced Paw Edema (PAF-Induced Paw Edema; 40.0 mg/kg): 50.2%

Compound: CCCCCCC(C)(C)c1cc(O)c2c(c1)OC(C)(C)[C@H]1CC=C(C(=O)O)C[C@H]21 [HU-235]
- Survival rate (survivors out of total) [1]: 7/10
- adhering cells, percent of control (peritoneal leukocytes; 0.01 mg/kg oral): 106% of control
- number of adhering cells (peritoneal leukocytes; 0.01 mg/kg oral): 1.34 ± 0.14 number of adhering cells × 10^-6
- adhering cells, percent of control (peritoneal leukocytes; 0.05 mg/kg oral): 102% of control
- number of adhering cells (peritoneal leukocytes; 0.05 mg/kg oral): 1.29 ± 0.05 number of adhering cells × 10^-6
- adhering cells, percent of control (peritoneal leukocytes; 0.10 mg/kg oral): 110% of control
- number of adhering cells (peritoneal leukocytes; 0.10 mg/kg oral): 1.38 ± 0.17 number of adhering cells × 10^-6
- adhering cells, percent of control (peritoneal leukocytes; 0.50 mg/kg oral): 116% of control
- number of adhering cells (peritoneal leukocytes; 0.50 mg/kg oral): 1.46 ± 0.05 number of adhering cells × 10^-6
- adhering cells, percent of control (peritoneal leukocytes; 1.00 mg/kg oral): 56% of control
- number of adhering cells (peritoneal leukocytes; 1.00 mg/kg oral): 0.70 ± 0.12 number of adhering cells × 10^-6
- cataleptic response (fraction of time immobile) (cataleptic response; 0.25 mg/kg): 12.3 ± 10.3
- cataleptic response (fraction of time immobile) (cataleptic response; 0.5 mg/kg): 13.8 ± 7.9
- cataleptic response (fraction of time immobile) (cataleptic response; 1.0 mg/kg): 10.4 ± 10.6
- cataleptic response (fraction of time immobile) (cataleptic response; 4.0 mg/kg): 8.7 ± 5.6
- Inhibition of Arachidonic Acid-Induced Paw Edema ([2]; 0.050 mg/kg, vs vehicle treated controls, 30 min after arachidonate): 42.1%
- reduction of arachidonic acid paw edema ([2]; result in words): effective in reducing paw edema
- percent change in latency (mouse hot plate test; 0.02 mg/kg oral): 10.3%
- percent change in latency (mouse hot plate test; 0.05 mg/kg oral): 61.7%
- percent change in latency (mouse hot plate test; 0.10 mg/kg oral): 49.5%
- percent change in latency (mouse hot plate test; 0.25 mg/kg oral): 61.5%
- percent change in latency (mouse hot plate test; 0.50 mg/kg oral): 61.5%
- percent change in latency (mouse hot plate test; 1.0 mg/kg oral): 51.7%
- percent change in latency (mouse hot plate test; 2.0 mg/kg oral): 14.7%
- reduction of intraocular pressure (intraocular pressure): Significant reduction
- Inhibition of PAF-Induced Paw Edema (PAF-Induced Paw Edema; 0.05 mg/kg): 44.4%
- Inhibition of PAF-Induced Paw Edema (PAF-Induced Paw Edema; 0.10 mg/kg): 38.7%
- Inhibition of PAF-Induced Paw Edema (PAF-Induced Paw Edema; 0.25 mg/kg): 31.9%
- Inhibition of PAF-Induced Paw Edema (PAF-Induced Paw Edema; 0.5 mg/kg): 60.1%
- activity in PAF-induced edema (PAF-Induced Paw Edema; result in words): active
- protection against forebrain ischemia (forebrain ischemia): shown to protect against forebrain ischemia
- Survival rate (survivors out of total) [3]: 8/12

Compound: CCCCCc1cc(O)c2c(c1)OC(C)(C)[C@@H]1CCC(C(=O)O)=C[C@@H]21 [Compound 2, (3R,4R)-delta-1-tetrahydrocannabinol-7-oic acid]
- analgetic activity [4]: analgetic
- antiinflammatory activity [4]: antiinflammatory
- psychotropic effects [4]: no psychotropic effects

Compound: CCCCCc1cc(O)c2c(c1)OC(C)(C)[C@@H]1CCC(C)=C[C@@H]21 [Δ^1 -THC, (3R,4R)-delta-1-tetrahydrocannabinol, reference compound]
- cataleptic response (fraction of time immobile) (cataleptic response; 40 mg/kg): 48.9 ± 16

Compound: CCCCCCC(C)(C)c1cc(O)c2c(c1)OC(C)(C)[C@H]1CC=C(CO)C[C@H]21 [HU-211, 7-hydroxy-delta-6-tetrahydrocannabinoldimethylheptyl, reference compound]
- Survival rate (survivors out of total) [1]: 11/16
- adhering cells, percent of control (peritoneal leukocytes; 0.05 mg/kg oral): 124% of control
- number of adhering cells (peritoneal leukocytes; 0.05 mg/kg oral): 1.09 ± 0.08 number of adhering cells × 10^-6
- adhering cells, percent of control (peritoneal leukocytes; 0.10 mg/kg oral): 50% of control
- number of adhering cells (peritoneal leukocytes; 0.10 mg/kg oral): 0.44 ± 0.03 number of adhering cells × 10^-6
- adhering cells, percent of control (peritoneal leukocytes; 0.50 mg/kg oral): 73% of control
- number of adhering cells (peritoneal leukocytes; 0.50 mg/kg oral): 0.64 ± 0.06 number of adhering cells × 10^-6
- adhering cells, percent of control (peritoneal leukocytes; 1.00 mg/kg oral): 67% of control
- number of adhering cells (peritoneal leukocytes; 1.00 mg/kg oral): 0.59 ± 0.06 number of adhering cells × 10^-6
- analgetic activity [4]: analgetic
- anti-NMDA activity [4]: anti-NMDA
- antiemetic activity [4]: entiemetic
- percent change in latency (mouse hot plate test; 0.25 mg/kg oral): 30.0%
- percent change in latency (mouse hot plate test; 0.50 mg/kg oral): 72.5%
- percent change in latency (mouse hot plate test; 1.0 mg/kg oral): -10.2%
- Inhibition of PAF-Induced Paw Edema (PAF-Induced Paw Edema; 0.5 mg/kg): 37.5%
- Inhibition of PAF-Induced Paw Edema (PAF-Induced Paw Edema; 1.0 mg/kg): 21.9%
- protection against forebrain ischemia (forebrain ischemia): shown to protect against forebrain ischemia
- Survival rate (survivors out of total) [3]: 6/10
